Here are results for 1 molecule from US20110009351A1, “SCREENING ASSAY TO IDENTIFY CORRECTORS OF PROTEIN TRAFFICKING DEFECTS” (Traffick Therepeutics Inc., priority 2007, published 2011).

Where a name gives a salt, the structure may show the parent alone.

For assay [1], the target named is T1, ΔF508-CFTR (Mus musculus, UniProt P26361, DEL508-508).
T1 construct: from tissue; host or cells: ileal mucosa of homozygous ΔF508 mice (A11 ex vivo, A12 after gavage); salivary secretion in the living mouse (A13)
T1 sequence (P26361 with tags, fused parts or gaps DEL508-508): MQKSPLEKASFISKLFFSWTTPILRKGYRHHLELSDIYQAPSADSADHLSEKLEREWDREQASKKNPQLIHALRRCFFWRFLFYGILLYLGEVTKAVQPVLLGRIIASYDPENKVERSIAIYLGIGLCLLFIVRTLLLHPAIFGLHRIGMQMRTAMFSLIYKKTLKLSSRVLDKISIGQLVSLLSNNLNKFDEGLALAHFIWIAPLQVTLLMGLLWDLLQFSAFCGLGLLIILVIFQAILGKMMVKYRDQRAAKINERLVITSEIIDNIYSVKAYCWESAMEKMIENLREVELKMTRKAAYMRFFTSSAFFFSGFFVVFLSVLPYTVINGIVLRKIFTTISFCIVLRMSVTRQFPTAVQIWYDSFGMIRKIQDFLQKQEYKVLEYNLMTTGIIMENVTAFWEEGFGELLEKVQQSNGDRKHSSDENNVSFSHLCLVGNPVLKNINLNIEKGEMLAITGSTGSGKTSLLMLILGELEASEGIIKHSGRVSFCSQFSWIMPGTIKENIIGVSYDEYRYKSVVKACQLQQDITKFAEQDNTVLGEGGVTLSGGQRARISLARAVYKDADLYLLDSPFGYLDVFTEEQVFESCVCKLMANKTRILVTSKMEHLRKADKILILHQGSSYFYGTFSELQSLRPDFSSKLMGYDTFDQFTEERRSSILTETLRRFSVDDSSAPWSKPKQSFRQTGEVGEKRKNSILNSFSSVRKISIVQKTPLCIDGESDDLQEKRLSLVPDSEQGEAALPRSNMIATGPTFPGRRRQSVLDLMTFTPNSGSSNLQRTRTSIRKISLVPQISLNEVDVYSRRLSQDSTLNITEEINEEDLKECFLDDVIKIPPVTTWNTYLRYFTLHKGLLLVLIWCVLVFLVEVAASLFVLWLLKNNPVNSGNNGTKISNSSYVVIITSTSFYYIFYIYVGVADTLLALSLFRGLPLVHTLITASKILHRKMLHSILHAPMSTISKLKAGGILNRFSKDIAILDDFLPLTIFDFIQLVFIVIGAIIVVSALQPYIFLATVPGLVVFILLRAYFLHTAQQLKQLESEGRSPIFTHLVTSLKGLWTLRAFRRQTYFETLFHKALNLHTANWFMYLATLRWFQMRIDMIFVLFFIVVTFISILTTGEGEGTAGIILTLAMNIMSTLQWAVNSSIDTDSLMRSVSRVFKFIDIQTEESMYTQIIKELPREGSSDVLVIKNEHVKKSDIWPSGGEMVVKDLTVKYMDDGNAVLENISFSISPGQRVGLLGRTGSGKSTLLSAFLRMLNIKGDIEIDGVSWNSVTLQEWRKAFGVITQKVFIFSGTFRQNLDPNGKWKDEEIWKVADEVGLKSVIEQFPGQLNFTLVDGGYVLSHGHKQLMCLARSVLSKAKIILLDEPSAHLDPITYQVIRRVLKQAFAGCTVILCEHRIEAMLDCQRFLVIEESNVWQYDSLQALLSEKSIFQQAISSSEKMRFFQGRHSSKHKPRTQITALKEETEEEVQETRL
Kind of assay: in vivo treatment of ΔF508-CFTR mice by gavage, Isc of freshly isolated ileum. The note with it: 50 mg/kg by gavage, once per day, 2 days. As to the method: Glafenine was tested ex vivo and in vivo using ileum from homozygous Δ508-CFTR mice (CFTR^tm1 Eur; van Doorninck et al., 1995) and wild-type littermates controls. Mice were 14-17 weeks old, weighed 24-30 g, and were genotyped by standard PCR methods using tail DNA. The mice were kept in a pathogen-free environment in the animal facility at McGill University and fed a high protein diet (SRM-A, Hope Farms, Woerden, NL) modified to contain pork instead of beef. All procedures followed Canadian Institutes of Health Research (CIHR) guidlines and were approved by the faculty Animal Care Committee. For ex vivo experiments, ileal mucosa was stripped of muscle and incubated in William's E-Glutamax medium supplemented with insulin (10 μg/ml), 100 U/ml penicillin, and 100 μg/ml streptomycin and dexamethasone (1.6 ng/ml) containing 0.1% DMSO (control) or DMSO containing glafenine for 5 h. The tissue was then rinsed repeatedly and mounted in Ussing chambers to measure […]. For in vivo experiments, mice were feed once per day by gavage with saline containing glafenine (50 mg/kg) or vehicle alone (0.1% DMSO). After 2 days of glafenine treatment the mice were euthanized under CO2, the intestine was dissected and the short circuit current was measured as described above.

The target in assay [2] is T1, ΔF508-CFTR. Kind of assay: salivary secretion assay in ΔF508-CFTR mice. The class given is in vivo. As to the method: The procedure followed those recently described by Best & Quinton (Best and Quinton, 2005). Homozygous Δ508-CFTR mice (CFTR^tm1 Eur) and wild-type mice of the same strain were 10-12 weeks old and weighed 20-25 g. They were fed once a day by gavage with saline containing glafenine (50 mg/kg) or vehicle alone (0.1% DMSO) for 2 days. The mice were anaesthetized with ketamine and diazepam on the day of the experiment, then pretreated with a subcutaneous injection of 1 mM atropine into the left cheek. Small strips of Whatman filter paper were placed inside the previously injected cheek for ˜4 min to absorb any salivary secretions. A solution containing 100 μM isoprenaline and 1 mM atropine was then injected into the left cheek at the same site to induce secretion at time zero and the filter paper was replaced every minute for 30 minutes. Each piece of filter paper was immediately placed and sealed in a pre-weighed vial and the time of removal was recorded. The rate of salivary secretion per min and total amount were normalized to the mass of the mouse in grams.

Assay [3] concerns the target ΔF508-CFTR (Homo sapiens, UniProt P13569, DEL508-508). Kind of assay: short-circuit current (Isc) across CFBE41o− monolayers in Ussing chambers. The class given is cell-based. Set-up: expressed in transfected cells; host or cells: CFBE41o- (ΔF508/ΔF508) transduced with ΔF508-CFTR, TranzVector lentivirus, provided by J. P. Clancy. The note with it: 10 μM, 24 h. As to the method:
Short-circuit current (Isc) was measured across monolayers in modified Ussing chambers. 1×10^6 CFBE41o^− cells were seeded onto 12-mm fibronectin-coated Snapwell inserts (Corning Incorporated, Life Sciences, New-York, N.Y.) and the apical medium was removed after 24 h. Transepithelial resistance was monitored using an EVOM epithelial voltohmmeter (World Precision Instruments, Sarasota, Fla.) and cells were used when the transepithelial resistance was 300-400 ohms·cm^2. In some experiments, F508del-CFBE41o^− monolayers were incubated at 29° C. or treated with glafenine at 37° C. for 24 h before being mounted in EasyMount chambers and voltage clamped using a VCCMC6 multichannel current-voltage clamp (Physiologic Instruments, San Diego, Calif.). The apical membrane conductance was functionally isolated by permeabilizing the basolateral membrane with 200 μg/ml nystatin and imposing an apical-to-basolateral Cl^− gradient. For these experiments the basolateral bathing solution contained (in mM) 1.2 NaCl, 115 Na-gluconate, 25 NaHCO3, 1.2 MgCl2, 4 CaCl2, 2.4, KH2PO4, 1.24 K2HPO4, 10 glucose (pH 7.4 with NaOH). The CaCl2 concentration was increased to 4 mM to compensate for the chelation of calcium by gluconate. The apical bathing solution contained (in mM) 115 NaCl, 25 NaHCO3, 1.2 MgCl2, 1.2 CaCl2, 2.4 KH2PO4, 1.24 K2HPO4, 10 mannitol (pH 7.4 with NaOH). […]

ΔF508-CFTR (Homo sapiens, UniProt P13569, DEL508-508), sequence (P13569 with tags, fused parts or gaps DEL508-508): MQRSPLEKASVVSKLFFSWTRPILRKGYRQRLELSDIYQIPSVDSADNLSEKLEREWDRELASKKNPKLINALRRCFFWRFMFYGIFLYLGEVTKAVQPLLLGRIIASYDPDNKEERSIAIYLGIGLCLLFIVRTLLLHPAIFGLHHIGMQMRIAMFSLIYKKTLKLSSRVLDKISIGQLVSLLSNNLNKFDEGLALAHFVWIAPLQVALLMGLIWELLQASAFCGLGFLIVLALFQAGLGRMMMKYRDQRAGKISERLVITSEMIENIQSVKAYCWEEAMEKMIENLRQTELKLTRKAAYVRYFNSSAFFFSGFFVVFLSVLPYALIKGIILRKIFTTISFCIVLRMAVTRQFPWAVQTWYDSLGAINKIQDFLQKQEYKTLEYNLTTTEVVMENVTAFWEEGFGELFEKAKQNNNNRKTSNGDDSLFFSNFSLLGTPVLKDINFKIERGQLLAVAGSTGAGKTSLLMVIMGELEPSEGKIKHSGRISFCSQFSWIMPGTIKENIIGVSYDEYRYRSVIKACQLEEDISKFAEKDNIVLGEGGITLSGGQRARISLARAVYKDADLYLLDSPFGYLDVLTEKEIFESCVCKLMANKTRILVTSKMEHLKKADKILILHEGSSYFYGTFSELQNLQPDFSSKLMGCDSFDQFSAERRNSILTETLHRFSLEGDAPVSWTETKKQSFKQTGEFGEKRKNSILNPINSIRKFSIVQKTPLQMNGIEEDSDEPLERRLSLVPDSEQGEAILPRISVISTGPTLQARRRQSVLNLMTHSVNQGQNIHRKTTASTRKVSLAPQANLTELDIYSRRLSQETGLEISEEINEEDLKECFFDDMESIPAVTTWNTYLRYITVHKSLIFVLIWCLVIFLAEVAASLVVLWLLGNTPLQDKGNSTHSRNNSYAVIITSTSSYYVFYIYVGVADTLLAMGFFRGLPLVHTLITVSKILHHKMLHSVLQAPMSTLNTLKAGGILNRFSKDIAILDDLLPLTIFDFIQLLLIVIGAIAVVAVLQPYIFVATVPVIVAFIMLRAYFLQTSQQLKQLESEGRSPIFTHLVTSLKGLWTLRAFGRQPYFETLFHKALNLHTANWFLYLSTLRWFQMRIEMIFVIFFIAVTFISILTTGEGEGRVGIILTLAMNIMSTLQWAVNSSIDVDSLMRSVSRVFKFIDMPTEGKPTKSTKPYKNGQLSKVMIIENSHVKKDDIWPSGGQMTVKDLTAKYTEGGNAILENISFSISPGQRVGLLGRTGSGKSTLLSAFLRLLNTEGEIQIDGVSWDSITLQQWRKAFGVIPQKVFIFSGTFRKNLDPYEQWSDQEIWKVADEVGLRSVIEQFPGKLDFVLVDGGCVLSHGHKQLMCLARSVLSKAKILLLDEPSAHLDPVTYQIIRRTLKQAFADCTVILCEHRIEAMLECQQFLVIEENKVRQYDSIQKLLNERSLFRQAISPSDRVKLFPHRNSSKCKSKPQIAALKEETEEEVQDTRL

Consider `O=C(OCC(O)CO)c1ccccc1Nc1ccnc2cc(Cl)ccc12` (stereo not shown) [Glafenine hydrochloride, 2-[(7-chloro-4-quinolinyl)amino]benzoic acid 2,3-dihydroxypropyl ester], for which, in assay [1], the “forskolin+genistein-stimulated current compared to mice fed with saline alone” value is reported as about 7 fold. In addition, in assay [2] (50 mg glafenine per kg), the “restored share of the total salivary response” value amounted to 15%. The “maximum rate of saliva production relative to WT mice” value in assay [2] (50 mg/kg by gavage, 2 days, isoprenaline with atropine, control CF mice 5%) is on record as 15%. In assay [3], the “increase of forskolin+genistein-stimulated Isc compared with DMSO controls” value was “about 2.5 fold”.
